In one experiment the test system is Septoria glycines. The experiment in a line: Use Example M8: activity against Septoria glycines in the microtiter test (Septgl). In kind it is cell-based.
The test system of another experiment is Colleotrichum truncatum. The experiment in a line: Use Example M9: activity against Colleotrichum truncatum in the microtiter test (Colltr). In kind it is cell-based.
The subject of the next experiment is Phytophthora infestans. The experiment in a line: microbe, parasite or virus in culture. In kind it is cell-based. Conditions: for inhibition of growth at 1 ppm / inhibition of growth at 0.016 ppm: Phytophthora infestans; for inhibition of growth at 1 ppm: read-out: Observed effect, 1 ppm; for inhibition of growth at 0.016 ppm: read-out: Observed effect, 0.016 ppm.

In experiment [1] the test system is Botrytis cinerea. The experiment can be described thus: Use Example M2: activity against the gray mold pathogen Botrytis cinerea in the microtiter test (Botrci). In kind it is cell-based.
In the next experiment the test system is Septoria tritici. The experiment in a line: Use Example G5: greenhouse, protective activity against Septoria leaf blotch of wheat caused by Septoria tritici (Septtr P1). In kind it is in vivo, Septoria tritici on wheat seedlings. The procedure:
(§1) The active compounds were prepared separately or jointly as a stock solution with 25 mg of active compound which was made up to 10 ml using a mixture of acetone and/or DMSO and the emulsifier Wettol EM 31 (wetting agent having emulsifying and dispersing action based on ethoxylated alkylphenols) in a volume ratio of solvent:emulsifier of 99:1. The mixture was then made up with water to 100 ml. This stock solution was diluted with the solvents/emulsifier/water mixture described to give the active compound concentrations stated below. Alternatively, the active compounds were used as commercial finished formulation and diluted with water to the stated active compound concentration. The active compound orysastrobin was used as a commercially available formulation, and diluted with water with reference to the active compound.
(§2) The visually determined values for the percentage of infected leaf area were initially converted into a mean value and then converted into efficacies in % of the untreated control. An efficacy of 0 means the same degree of infection as in the untreated control, an efficacy of 100 means 0% infection. The expected efficacies for the active compound combinations were determined using Colby's formula (Colby, S. R. “Calculating synergistic and antagonistic responses of herbicide combinations”, Weeds, 15, pp. 20-22, 1967) and compared to the observed efficacies.
Leaves of potted wheat seedlings were sprayed to run off point with an aqueous suspension having the active compound concentration stated below. 24 hours after the spray coating had dried on, they were inoculated with an aqueous spore suspension of Septoria tritici. The test plants were then placed in a greenhouse at temperatures between 18 and 22° C. and a relative atmospheric humidity close to 100% for four days and then at temperatures between 18 and 22° C. and an atmospheric humidity of about 70%. After 21 days, the extent of the development of the disease was determined visually in % infection of the total leaf area.

In another experiment the test system is Alternaria solani. In kind it is in vivo, Alternaria solani on tomato plants. Conditions: 16 ppm.
The next experiment deals with Phakopsora pachyrhizi. The experiment in a line: Use Example G4: greenhouse, curative activity against soybean rust caused by Phakopsora pachyrhizi (Phakpa K4). In kind it is in vivo, Phakopsora pachyrhizi on soybean seedlings. The procedure: as §1, §2
Leaves of potted soybean seedlings were inoculated with a spore suspension of soybean rust (Phakpsora pachyrhizi). The pots were then placed in a chamber of high atmospheric humidity (90 to 95%) and 20 to 24° C. for 24 hours. During this time, the spores germinated and the germ tubes penetrated into the leaf tissue. The infected plants were then cultivated further in a greenhouse at temperatures between 23 and 27° C. and 60 to 80% relative atmospheric humidity. After three days, the plants were sprayed to run off point with the active compound solution described above at the active compound concentration stated below. After the spray coating had dried on, the test plants were cultivated in a greenhouse at temperatures between 23 and 27° C. and 60 to 80% relative atmospheric humidity for a further 10 days. The extent of the rust fungus development on the leaves was then determined visually in %.

For experiment [2], the system named is Botrytis cinerea. The experiment can be described thus: Use Example G2: greenhouse, activity against grey mold on bell pepper leaves caused by Botrytis cinerea, 1 day protective application (Botrci P1). In kind it is in vivo, Botrytis cinerea on bell pepper seedlings. The procedure: as §1, §2
Bell pepper seedlings were, after 2-3 leaves were well developed, sprayed to run off point with an aqueous suspension having the active compound concentrations stated below. The next day, the treated plants were inoculated with a spore suspension of Botrytis cinerea in a 2% biomalt solution. The test plants were then placed in a dark climatized chamber at 22 to 24° C. and high atmospheric humidity. After 5 days, the extent of the fungal infection on the leaves could be determined visually in %.

The mark [3] stands for this setting: Septoria glycines, read-out: Observed effect.
The mark [4] stands for this setting: Septoria glycines, 0.016 ppm, read-out: Observed effect.
[5] abbreviates: Septoria glycines, 0.25 ppm, read-out: Observed effect.
[6] abbreviates: Septoria glycines, 1 ppm, read-out: Observed effect.
Where [7] appears, read: Septoria glycines, 0.063 ppm, read-out: Observed effect.

Like-named read-outs stand apart in the source and are kept apart here.

The values that follow come from patent US20120088661A1, “FUNGICIDAL MIXTURES” (BASF SE, priority 2009, published 2012).

As to `Cc1ccccc1[C@@H]1O[C@]1(Cn1nc[nH]c1=S)c1ccc(F)c(F)c1` (relative stereo) [Example I-2, 2-[trans-2-(3,4-difluorophenyl)-3-o-tolyloxiranylmethyl]-2,4-dihydro-[1,2,4]triazole-3-thione], the Observed effect in the experiment on Septoria glycines (63 ppm) is on record as 40%; in the experiment with Colleotrichum truncatum (63 ppm) it was 38%.

As for `N#Cc1sc2c(=O)c3ccccc3c(=O)c=2sc1C#N` [II-47, dithianon], the inhibition of growth at 0.004 ppm in the experiment on Septoria glycines (setting [3]) was found to be 3%. Also, the inhibition of growth at 0.016 ppm in the experiment with Septoria glycines (setting [4]) was found to be 37%. In the experiment with Colleotrichum truncatum (0.016 ppm), this compound registered an Observed effect of 3%.

Consider `CC(Cc1ccc(C(C)(C)C)cc1)CN1C[C@@H](C)O[C@@H](C)C1` (stereo partly shown) [II-15, fenpropimorph], for which the inhibition of growth at 0.004 ppm with Septoria glycines (setting [3]) was 1%. In the experiment with Septoria glycines (setting [5]), the inhibition of growth at […] amounted to 71%. In the experiment on Phytophthora infestans, the inhibition of growth at 1 ppm stood at 26%.

For the compound “2-[trans-3-(2-chlorophenyl)-2-(3,4-difluorophenyl)oxiranylmethyl]-2H-[1,2,4]triazole-3-thiol [Example I-3]”, the values for the Observed effect in the experiment with Botrytis cinerea [1] (4 ppm), in the experiment with Botrytis cinerea [1] (63 ppm) and in the experiment on Phytophthora infestans (63 ppm) were 8%, 25% and 31%, respectively.

`CC1(C)CCC(Cc2ccc(Cl)cc2)C1(O)Cn1cncn1` (stereo not shown) [II-2, metconazole]: the inhibition of growth at […] in the experiment on Septoria glycines (setting [5]) is 19%.

In the experiment on Botrytis cinerea [1] (16 ppm), `CSc1ncnn1C[C@]1(c2ccc(F)c(F)c2)O[C@H]1c1ccccc1Cl` (relative stereo) [Example I-5, 1-[trans-3-(2-chlorophenyl)-2-(3,4-difluorophenyl)oxiranylmethyl]-5-methylsulfanyl-1H-[1,2,4]triazole] yielded an Observed effect of 9%.

For `COC(=O)N(OC)c1ccccc1COc1ccn(-c2ccc(Cl)cc2)n1` [II-9, pyraclostrobin], the Observed effect in the experiment with Botrytis cinerea [1] (0.016 ppm) is on record as 8%; in the experiment on Colleotrichum truncatum (0.016 ppm), 7%. Also, the inhibition of growth at 0.016 ppm with Septoria glycines (setting [4]) is 69%; in the experiment on Phytophthora infestans, 13%.

The compound `CSc1ncnn1C[C@]1(c2ccc(F)cc2F)O[C@H]1c1ccccc1Cl` (relative stereo) [Example I-7, 1-[trans-3-(2-chlorophenyl)-2-(2,4-difluorophenyl)oxiranylmethyl]-5-methylsulfanyl-1H-[1,2,4]triazole] yielded an Observed effect in the experiment on Botrytis cinerea [1] (16 ppm) of 25%.

Regarding `CNC(=O)/C(=N/OC)c1ccccc1CO/N=C(C)/C(=N/OC)C(/C)=N/OC` [II-10, orysastrobin], the figures for the Observed effect in the experiment with Botrytis cinerea [1] (1 ppm), in the experiment on Phytophthora infestans (1 ppm) and in the experiment with Colleotrichum truncatum (4 ppm) were 13%, 22% and 29%, respectively.

Turning to `COCC(=O)N(c1c(C)cccc1C)C(C)C(=O)OC` (stereo not shown) [II-14, metalaxyl], in the experiment with Septoria glycines (Septoria glycines, 4 ppm, read-out: Observed effect), the inhibition of growth at 4 ppm came to 18%.

`O=[N+]([O-])c1cc(C(F)(F)F)c(Cl)c([N+](=O)[O-])c1Nc1ncc(C(F)(F)F)cc1Cl` [II-40, fluazinam]: the inhibition of growth at 0.016 ppm in the experiment with Septoria glycines (setting [4]) stood at 7%. Besides, the inhibition of growth at 1 ppm in the experiment on Septoria glycines (setting [6]) and in the experiment on Phytophthora infestans was 24% each time.

In the case of `CO/C=C(/C(=O)OC)c1ccccc1Oc1cc(Oc2ccccc2C#N)ncn1` [II-49, azoxystrobin], in the experiment on Septoria glycines (0.016 ppm), the Observed effect is on record as 20%.

`N#Cc1c(Cl)c(Cl)c(Cl)c(C#N)c1Cl` [II-21, chlorothalonil]: the Observed effect in the experiment on Botrytis cinerea [1] (1 ppm) worked out at 40%; with Septoria tritici (4 ppm), 0%. Besides, the inhibition of growth at […] in the experiment on Septoria glycines (setting [7]) is 6%.

With `CO/N=C(/C(=O)OC)c1ccccc1COc1ccccc1C` [II-8, kresoxim-methyl], the Observed effect in the experiment with Colleotrichum truncatum (1 ppm) was determined as 27%; with Colleotrichum truncatum (4 ppm) it was 37%.

As to `N#CSc1ncnn1C[C@]1(c2ccc(F)cc2F)O[C@H]1c1ccccc1Cl` (relative stereo) [Example I-8, 1-[trans-3-(2-chlorophenyl)-2-(2,4-difluorophenyl)oxiranylmethyl]-5-thiocyanato-1H-[1,2,4]triazole], the Observed effect in the experiment on Botrytis cinerea [1] (16 ppm) came to 19%; with Phytophthora infestans (4 ppm), 7%.

Turning to `CC(C)NC(=O)N1CC(=O)N(c2cc(Cl)cc(Cl)c2)C1=O` [II-17, iprodione], the inhibition of growth at 1 ppm with Septoria glycines (setting [6]) stood at 0%.

`OC(c1ccc(Cl)cc1)(c1cncnc1)c1ccccc1Cl` (stereo not shown) [fenarimol]: the inhibition of growth at 0.016 ppm with Septoria glycines (setting [4]) is 11%; in the experiment on Phytophthora infestans it was 5%. Moreover, the inhibition of growth at 1 ppm with Septoria glycines (setting [6]) amounted to 39%; in the experiment with Phytophthora infestans it was 28%.

On to `CCNC(=O)NC(=O)/C(C#N)=N/OC` [cymoxanil], for which the inhibition of growth at 16 ppm in the experiment on Septoria glycines (Septoria glycines, 16 ppm, read-out: Observed effect) is 27%.

As for `N#Cc1c[nH]cc1-c1cccc2c1OC(F)(F)O2` [II-38, fludioxonil], in the experiment on Phytophthora infestans, the inhibition of growth at 1 ppm is 27%.

As for `COC(=O)C(C)N(C(=O)Cc1ccccc1)c1c(C)cccc1C` (stereo not shown) [benalaxyl], the Observed effect came out at 0% in the experiment on Septoria tritici (250 ppm) and 2% in the experiment with Alternaria solani.

With `Fc1ccc([C@]2(Cn3cncn3)O[C@H]2c2ccccc2Cl)cc1` (racemic) [II-1, epoxiconazole], the inhibition of growth at […] with Septoria glycines (setting [7]) is 2%.

Take `CO/N=C(/C1=NOCCO1)c1ccccc1Oc1ncnc(Oc2ccccc2Cl)c1F` [II-57, fluoxastrobin]: the Observed effect in the experiment with Phakopsora pachyrhizi (1 ppm) came to 15%.

`Cc1ccc(C(C)NC(=O)[C@@H](NC(=O)OC(C)C)C(C)C)cc1` (stereo partly shown) [II-35, iprovalicarb] showed an Observed effect with Septoria glycines (1 ppm) of 3%.

For `O=C1C2CC=CCC2C(=O)N1SC(Cl)(Cl)Cl` (stereo not shown) [captan], the Observed effect in the experiment with Septoria tritici (16 ppm), in the experiment with Phakopsora pachyrhizi (1 ppm) and in the experiment on Phakopsora pachyrhizi (4 ppm) was 0% throughout.

`COc1ccc(/C(=C\C(=O)N2CCOCC2)c2ccc(F)cc2)cc1OC` [flumorph]: the Observed effect in the experiment with Septoria glycines (16 ppm) is reported as 21%.

Regarding `CC(C)(C)C(O)(CCc1ccc(Cl)cc1)Cn1cncn1` (stereo not shown) [II-3, tebuconazole], the Observed effect in the experiment on Botrytis cinerea [2] (1 ppm) is given as 0%.

“2-[trans-3-(2-chlorophenyl)-2-(2,4-difluorophenyl)oxiranylmethyl]-2,4-dihydro-[1,2,4]triazole-3-thione [Example I-1]”: the Observed effect amounted to 41% with Septoria tritici (4 ppm); 30% in the experiment with Septoria glycines (16 ppm); 61% in the experiment with Septoria glycines (63 ppm); 2% with Botrytis cinerea [2] (4 ppm); 3% in the experiment with Phytophthora infestans (1 ppm); 14% in the experiment on Phytophthora infestans (16 ppm). The Observed effect stood at 53% in the experiment with Phytophthora infestans (63 ppm), 5% with Colleotrichum truncatum (1 ppm), 6% in the experiment with Colleotrichum truncatum (16 ppm) and 30% with Colleotrichum truncatum (63 ppm).

In the case of “2-[trans-2-(3,4-difluorophenyl)-3-(2-trifluoromethylphenyl)oxiranylmethyl]-2,4-dihydro-[1,2,4]triazole-3-thione [Example I-4]”, the Observed effect came to 5% in the experiment on Septoria glycines (16 ppm), 23% with Septoria glycines (63 ppm), 31% in the experiment with Phytophthora infestans (63 ppm) and 26% in the experiment on Colleotrichum truncatum (63 ppm).

The compound “1-[trans-2-(2,4-difluorophenyl)-3-(2-fluorophenyl)oxiranylmethyl]-5-methylsulfanyl-1H-[1,2,4]triazole [Example I-6]” registered an Observed effect in the experiment with Botrytis cinerea [1] (4 ppm) of 9%.

As for `Cc1cc(C2CC2)nc(Nc2ccccc2)n1` [II-36, cyprodinil], the Observed effect in the experiment with Septoria tritici (4 ppm) is 0%.

In the case of `CCCN(CCOc1c(Cl)cc(Cl)cc1Cl)C(=O)n1ccnc1` [II-46, prochloraz], the Observed effect in the experiment with Septoria tritici (1 ppm) was determined as 0%; in the experiment on Phakopsora pachyrhizi (1 ppm), 7%. Besides, the inhibition of growth at 0.001 ppm in the experiment with Septoria glycines (setting [3]) is 11%.

Regarding `CC(C)NC(=O)N1CC(=O)N(c2cc(Cl)cc(Cl)c2)C1=O` [iprodion], the Observed effect in the experiment with Colleotrichum truncatum (1 ppm) is given as 9%.
